Measured values: patent publication US9956181B2, “Composition of nanoformulated lycopene and method of using the composition” (priority 2015, dated 2018)

What was measured:
[1] = tested on: ovariectomized (OVX) rats; assay: OVX rat study: dynamic bone histomorphometry of tibial metaphysis and diaphysis; type: in vivo, Wistar rats
Description: (§1) A total of 264 Wistar female rats, ˜6 months old, were supplied by the Animal House at King Fahd Medical Research Center (KFMRC), KAU. Rats were housed in individual cages and maintained at 22° C. with a 12-h light/dark cycle. During the study period, rats were given standard rodent chow diet ad libitum (commercial rat cubes containing approximately 18% protein, 3% fat, 77% carbohydrate, and 2% of an inorganic-salt mixture with a vitamin supplement by weight, supplied by Grain Silos and Flour Mills Organization, Jeddah, Saudi Arabia) and water until the onset of intervention. Prior to surgery, rats were anesthetized with ketamine [(10% ketamine hydrochloride (80 mg/kg body weight), Cayman Chemical, Michigan, USA] and xylazine [(2% xylazine hydrochloride, 10 mg/kg body weight), Sigma-Aldrich Co., St. Louis, USA]. A single longitudinal skin incision was made on the dorsal midline at the level of the kidneys and both ovaries were ligated and removed to produce an ovariectomy in all OVX group animals. A SHAM-operated group, acting as a negative control for the effect of ovariectomy on bone parameters, underwent bilateral laparotomy, during which the ovaries were exposed but remained intact. […] The lycopene-supplemented groups were given lycopene (15, 30 and 45 mg/kg body weight per day) dissolved in corn oil by daily intra-gastric administration for the experimental period of 12 weeks. The SHAM, OVX and ALN control groups were given the same volume of corn oil without lycopene treatment. […] A 12-week randomized placebo-controlled study in order to examine the protective effects of lycopene supplementation on bone mass and fragility in OVX rats was concluded. Prior to surgery, body weight and bone mineral density (BMD) were obtained for all animals. Rats were randomized using a computer-generated randomization code into one of six groups: (1) sham-operated (SHAM; n=44); (2) ovariectomized control (OVX; n=44); (3) OVX lycopene-supplemented (15 mg/kg body weight per day) (n=44); (4) OVX lycopene-supplemented (30 mg/kg body weight per day) (n=44); (5) OVX lycopene-supplemented (45 mg/kg body weight per day) (n=44) and (6) OVX alendronate-treated (ALN) [2.0 μg/kg body weight per day subcutaneously (sc)] (n=44). Alendronate is an anti-resorptive agent for the treatment of osteoporosis and was used as a positive therapy control. […] All OVX groups were pair-fed with the SHAM group throughout the study to avoid the possible effects of ovariectomy-induced over-consumption and subsequent excessive weight gain. Treatment started 1 week after the surgery: this period of rest allowed the rats to recover from the stress associated with the surgery. In addition, after surgery, rats were administered Diclofenac sodium injection (20 mg/Kg body weight) to reduce the pain associated with the surgery. Rats were weighed and examined daily. Blood and urine samples were collected at baseline, during, and at the end of treatment for measurement of various BTMs and other analytes. In vivo dual energy x-ray absorptiometry (DXA) measurements were made for the bone mineral content (BMC) and BMD of the whole body, lumbar spine (L1-L4), and the right humerus, together with body composition at 12 weeks of treatment. One day following the post-test DXA assessments (at 12 weeks, 16 rats in each group), animals were euthanized by decapitation and right and left femurs were extracted for further biomechanical and histomorphometric analyses. Blood and urine samples were collected from all experimental groups to measure biochemical analytes and BTMs at baseline and 4, 8, and 12 weeks of treatment. Peripheral Quantitative CT (pQCT) scans were made of the proximal tibia metaphysis and the diaphysis. In vivo micro-computed tomographic (μCT) scans of the proximal tibia were obtained during the treatment period to monitor changes in bone mass and microarchitecture. […]

[2] = tested on: ovariectomized (OVX) rats; assay: OVX rat study: serum minerals, enzymes and hormones; type: in vivo, Wistar rats
Description: as §1, with “In addition, after surgery, rats were administered Diclofenac sodium injection (20 mg/Kg body weight) to reduce the pain associated with the surgery. Rats were weighed and examined daily. Blood and urine samples were collected at baseline, during, and at the end of treatment for measurement of various BTMs and other analytes. In vivo dual energy x-ray absorptiometry (DXA) measurements were made for the bone mineral content (BMC) and BMD of the whole body, lumbar spine (L1-L4), and the right humerus, together with body composition at 12 weeks of treatment. One day following the post-test DXA assessments (at 12 weeks, 16 rats in each group), animals were euthanized by decapitation and right and left femurs were extracted for further biomechanical and histomorphometric analyses. Blood and urine samples were collected from all experimental groups to measure biochemical analytes and BTMs at baseline and 4, 8, and 12 weeks of treatment.” left out, “diaphysis.” for “diaphysis. In vivo micro-computed tomographic (μCT) scans of the proximal tibia were obtained during the treatment period to monitor changes in bone mass and microarchitecture.”

[3] = tested on: ovariectomized (OVX) rats; assay: OVX rat study: ex vivo pQCT and biomechanical testing of lumbar spine and femur; type: in vivo, Wistar rats; conditions: 12 weeks
Description: as §1, with “One day following the post-test DXA assessments (at 12 weeks, 16 rats in each group), animals were euthanized by decapitation and right and left femurs were extracted for further biomechanical and histomorphometric analyses. Blood and urine samples were collected from all experimental groups to measure biochemical analytes and BTMs at baseline and 4, 8, and 12 weeks of treatment.” left out, “diaphysis.” for “diaphysis. In vivo micro-computed tomographic (μCT) scans of the proximal tibia were obtained during the treatment period to monitor changes in bone mass and microarchitecture.”

[4] = tested on: ovariectomized (OVX) rats; assay: OVX rat study: ex vivo μCT analysis of tibial metaphysis and femur diaphysis; type: in vivo, Wistar rats
Description: as §1

[5] = tested on: ovariectomized (OVX) rats; assay: OVX rat study: in vivo pQCT densitometry of tibia metaphysis; design: species or system Wistar rats; conditions: 12 weeks, versus OVX control, P<0.001
Description: A total of 264 Wistar female rats, ˜6 months old, were supplied by the Animal House at King Fahd Medical Research Center (KFMRC), KAU. Rats were housed in individual cages and maintained at 22° C. with a 12-h light/dark cycle. During the study period, rats were given standard rodent chow diet ad libitum (commercial rat cubes containing approximately 18% protein, 3% fat, 77% carbohydrate, and 2% of an inorganic-salt mixture with a vitamin supplement by weight, supplied by Grain Silos and Flour Mills Organization, Jeddah, Saudi Arabia) and water until the onset of intervention. Prior to surgery, rats were anesthetized with ketamine [(10% ketamine hydrochloride (80 mg/kg body weight), Cayman Chemical, Michigan, USA] and xylazine [(2% xylazine hydrochloride, 10 mg/kg body weight), Sigma-Aldrich Co., St. Louis, USA]. A single longitudinal skin incision was made on the dorsal midline at the level of the kidneys and both ovaries were ligated and removed to produce an ovariectomy in all OVX group animals. A SHAM-operated group, acting as a negative control for the effect of ovariectomy on bone parameters, underwent bilateral laparotomy, during which the ovaries were exposed but remained intact. […] Peripheral Quantitative CT (pQCT) scans were made of the proximal tibia metaphysis and the diaphysis. […]

[6] = lycopene 15-45 mg/kg/day, 12 weeks, range over doses
[7] = 12 weeks, lycopene, ALN 2.0 μg/kg/day, P<0.001

With `CC(C)=CCC/C(C)=C/C=C/C(C)=C/C=C/C(C)=C/C=C/C=C(C)/C=C/C=C(C)/C=C/C=C(\C)CCC=C(C)C` [lycopene] the “osteoclast surface (Oc.S/BS) and osteoclast number (N.Oc/BS)” value ([1]; OVX rats, lycopene, P<0.001) was “significant decreases”, the “bone formation parameters (Ob.S/BS, MS/BS, BFR/BS, BFR/BV)” value ([1]; OVX rats, lycopene, tibial metaphysis) was “prevented OVX-induced increases” and the “increase in BV/TV, tibial metaphysis (histomorphometry), compared with OVX control” value [1, 6] was 27.1-92.2%. The “increase in Tb.N, tibial metaphysis (histomorphometry), compared with OVX control” value [1, 6] was 9.2-72.9%, the “OVX-related increases in endocortical bone turnover formation (Ec.L.Pm/Ec.Pm, Ec MAR, Ec.BFR/BS)” value ([1]; lycopene greater than 15 mg/kg body weight per day, tibial diaphysis) was “completely prevented” and the “bone dynamics on the periosteal surface” value ([1]; lycopene, except at 45 mg/kg body weight per day) was “positively affected”. For the same compound, the “serum E2” value ([2]; OVX lycopene-treated groups, dose-dependent, P<0.001) was “significantly increased”, the “elevated serum FSH and LH levels” value ([2]; OVX rats, lycopene treatment) was “attenuated” and the “serum PTH values versus other groups” value ([2]; OVX rats, lycopene 45 mg/kg/day, ALN 2.0 μg/kg/day sc, P<0.001) was “significantly higher”. For the same compound, the “OVX-induced decrease in cortical thickness” value ([3]; lycopene particularly 45 mg/kg/day, alendronate 2.0 μg/kg/day) was “prevented the decrease”, the “lumbar spine biomechanical / bone strength parameters” value ([3]; lycopene particularly 30 and 45 mg/kg/day, ALN 2.0 μg/kg/day, P<0.05) was “improved” and the “effects of OVX on bone strength parameters in the femur diaphysis” value ([3]; lycopene, values comparable to SHAM) was “prevented the negative effects”. For the same compound, the “decrease in Tb.Sp, tibia metaphysis (μCT), compared with OVX group” value [4, 7] was 46.8%, the “increase in BV/TV, tibia metaphysis (μCT), compared with OVX group” value [4, 7] was 123.9% and the “increase in Tb.N, tibia metaphysis (μCT), compared with OVX group” value [4, 7] was 52.8%. For the same compound, the “increase in Tb.Th, tibia metaphysis (μCT), compared with OVX group” value ([4]; 12 weeks, lycopene, P<0.001) was 78.4%, the “relative bone volume (BV/TV) of the femur diaphysis (μCT)” value ([4]; OVX rats, 12 weeks) was “nor lycopene or ALN treatment had significant effects” and the “femoral cortical values for Ct.Th and Ct.Po (μCT)” value ([4]; lycopene 30 and 45 mg/kg/day, ALN, versus SHAM and OVX groups) was “improved”. For the same compound, the “OVX-induced bone loss (total and trabecular BMD, proximal tibia, pQCT)” value [5] was “significantly prevented”.
